The source of these data is patent US6921774B2, “Compounds and their use as glycine transport inhibitors” (H. Lundbeck A/S, priority 2000, dated 2005).

By IC50 is commonly meant the concentration needed to halve the response being measured.

Structures can show the parent of a compound that is named as a salt.

The target of this test is T1, human GlyT-1b (Homo sapiens, UniProt P48067).
T1 construct: expressed in transfected cells
T1 sequence (P48067 1-652 isoform P48067-3): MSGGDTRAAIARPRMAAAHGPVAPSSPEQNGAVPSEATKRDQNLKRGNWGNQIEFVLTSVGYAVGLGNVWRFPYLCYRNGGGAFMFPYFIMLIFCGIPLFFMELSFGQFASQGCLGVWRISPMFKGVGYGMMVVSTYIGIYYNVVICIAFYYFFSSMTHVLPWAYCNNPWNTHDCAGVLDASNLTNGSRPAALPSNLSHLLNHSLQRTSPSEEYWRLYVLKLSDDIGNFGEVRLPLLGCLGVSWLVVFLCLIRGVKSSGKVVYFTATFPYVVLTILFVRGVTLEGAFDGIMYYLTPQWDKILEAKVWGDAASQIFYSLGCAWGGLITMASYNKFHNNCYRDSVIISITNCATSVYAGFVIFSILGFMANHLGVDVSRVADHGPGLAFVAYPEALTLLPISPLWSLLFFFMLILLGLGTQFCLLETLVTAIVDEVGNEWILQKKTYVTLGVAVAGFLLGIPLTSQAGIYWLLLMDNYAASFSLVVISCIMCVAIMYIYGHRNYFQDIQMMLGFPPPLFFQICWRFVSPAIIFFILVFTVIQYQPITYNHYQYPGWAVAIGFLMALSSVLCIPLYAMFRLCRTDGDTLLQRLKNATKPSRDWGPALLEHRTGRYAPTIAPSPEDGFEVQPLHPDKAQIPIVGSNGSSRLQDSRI
The test is described as follows: [3H]-Glycine uptake in cells transfected with human GlyT-1b. The class given is cell-based. The settings on record: 6 min pre-incubation, 10 nM 3H-glycine, 15 min, read-out: IC50 GlyT-1b (Inhibition of Glycine Transport by hGlyT-). The method, then:
The compounds of the invention were tested in a well-recognised and reliable test measuring glycine uptake:
Cells transfected with the human GlyT-1b were seeded in 96 well plates. Prior to the experiment the cells were washed twice in HBS (10 mM Hepes-tris (pH 7.4), 2.5 mM KCl, 1 mM CaCl2, 2.5 mM MgSO4,) and pre-incubated with test compound for 6 minutes. Afterwards, 10 nM ^3H-glycine was added to each well and the incubation was continued for 15 minutes. The cells were washed twice in HBS. Scintillation fluid was added and the Plates were counted on a Trilux (Wallac) scintillation counter.
As to `C[C@@H](C(=O)O)N(C)CCCC1(c2ccc(Cl)cc2)CCc2cc(Cl)ccc21` (some centres unmarked) [Compound 3aa, N-{3-[5-Chloro-1-(4-chloro-phenyl)-indan-1-yl]-propyl}-N-methylalanine hydrochloride], the 50% inhibitory concentration (IC50) came to 0.47 µM.

Regarding `CN(CCCC1(c2ccc(Cl)cc2)OCc2cc(Br)ccc21)CC(=O)O` (centres unmarked) [Compound 3ae, N-{3-[5-Bromo-1-(4-chlorophenyl)-1,3-dihydroisobenzofuran-1-yl]-1-propyl}-N-methylglycine], the IC50 was 4 µM.

Consider `CN(CCC1(c2ccc(Cl)cc2)OC(C)(C)c2ccccc21)CC(=O)O` (centres unmarked) [Compound 3af, N-{2-[1-(4-Chloro-phenyl)-3,3-dimethyl-1,3-dihydro-isobenzofuran-1-yl]-ethyl}-N-methylglycine], for which the IC50 was found to be 3.5 µM.

As for `Cc1ccc(-c2ccc3c(c2)COC3(CCN(C)CC(=O)O)c2ccc(Cl)cc2)cc1` (centres unmarked) [Compound 3al, N-{3-[1-(4-Chloro-phenyl)-5-(4-methyl-phenyl)-1,3-dihydro-isobenzofuran-1-yl]-ethyl}-N-methyl-glycine], the IC50 stood at 2.2 µM.

As for `CN(CCCC1(c2ccc(Cl)cc2)OCc2c(Cl)cccc21)CC(=O)O` (centres unmarked) [Compound 3k, N-{3-[4-chloro-1-(4-chlorophenyl)-1,3-dihydroisobenzofuran-1-yl]-1-propyl}-N-methylglycine hydrochloride.], the IC50 stood at 4.1 µM.

On to `C[C@@H](C(=O)O)N(C)CCCC1(c2ccc(Cl)cc2)OCc2cc(Cl)ccc21` (some centres unmarked) [Compound 3l, N-{3-[5-chloro-1-(4-chlorophenyl)-1,3-dihydroisobenzofuran-1-yl]-1-propyl}-N-methylalanine hydrochloride], for which the IC50 came to 5.5 µM.

As to `CN(CCCC1(c2ccc(Cl)cc2)OCc2ccc(Cl)cc21)CC(=O)O` (centres unmarked) [Compound 3m, N-{3-[6-chloro-1-(4-chlorophenyl)-1,3-dihydroisobenzofuran-1-yl]-1-propyl}-N-methylglycine hydrochloride.], the IC50 worked out at 7.2 µM.

For the molecule `Cc1ccc(C2(CCCN(C)CC(=O)O)OCc3ccc(Cl)cc32)cc1` (centres unmarked) [Compound 3n, N-{3-[6-chloro-1-(4-methylphenyl)-1,3-dihydroisobenzofuran-1-yl]-1-propyl}-N-methylglycine hydrochloride.], the IC50 amounted to 9.6 µM.

On to `Cc1cc(C2(CCCN(C)CC(=O)O)OCc3cc(C#N)ccc32)ccc1F` (centres unmarked) [Compound 3t, N-{3-[5-cyano-1-(3-methyl-4-fluorophenyl)-1,3-dihydroisobenzofuran-1-yl]-1-propyl}-N-methylglycine hydrochloride.], for which the IC50 was determined as 5.7 µM.

On to `COc1ccc(C2(CCCN(C)CC(=O)O)OCc3cc(C#N)ccc32)cc1` (centres unmarked) [Compound 3v, N-{3-[5-cyano-1-(4-methoxyphenyl)-1,3-dihydroisobenzofuran-1-yl]-1-propyl}-N-methylglycine hydrochloride], for which the IC50 came to 8.6 µM.

Regarding `CN(CCCC1(c2ccc(Cl)cc2)CCc2cc(Cl)ccc21)CC(=O)O` (centres unmarked) [Compound 3z, N-{3-[5-Chloro-1-(4-chloro-phenyl)-indan-1-yl]-propyl}-N-methylglycine hydrochloride], the IC50 came to 1.1 µM.

As for `CN(CCC1(c2ccc(Cl)cc2)OCc2cc(-c3cccs3)ccc21)CC(=O)O` (centres unmarked) [Compound 4c, N-{3-[1-(4-Chloro-phenyl)-5-(2-thiophenyl)-1,3-dihydro-isobenzofuran-1-yl]-ethyl}-N-methyl-glycine], the concentration for half-maximal inhibition (IC50) worked out at 1.2 µM.

Take `Cc1ccc(-c2ccc3c(c2)COC3(CCCN(C)CC(=O)O)c2ccc(Cl)cc2)cc1` (centres unmarked) [Compound 4d, N-{3-[1-(4-Chloro-phenyl)-5-(4-methyl-phenyl)-1,3-dihydro-isobenzofuran-1-yl]-propyl}-N-methyl-glycine]: the IC50 is 1.5 µM.

With `Cc1ccccc1-c1ccc2c(c1)COC2(CCN(C)CC(=O)O)c1ccc(Cl)cc1` (centres unmarked) [Compound 4j, N-{3-[1-(4-Chloro-phenyl)-5-(2-methyl-phenyl)-1,3-dihydro-isobenzofuran-1-yl]-ethyl}-N-methyl-glycine], the IC50 is 0.71 µM.

As for `CN(CCC1(c2ccc(Cl)cc2)OCc2cc(-c3cc(Cl)ccc3Cl)ccc21)CC(=O)O` (centres unmarked) [Compound 4k, N-{3-[1-(4-Chloro-phenyl)-5-(2,5-dichloro-phenyl)-1,3-dihydro-isobenzofuran-1-yl]-ethyl}-N-methyl-glycine], the IC50 came to 0.95 µM.

As for “N-[2-(3-methyl-1-phenyl-indan-1-yl)-ethyl]-amino}-N-methyl alanine [Compound 3ak]”, the half-inhibitory concentration (IC50) came to 2.2 µM.

Take “N-{3-[1-(4-methylphenyl)-1,3-dihydroisobenzofuran-1-yl]-1-propyl}-N-methylglycine. hydrochloride [Compound 3f]”: the IC50 amounted to 5.4 µM.
